# Target: Telomerase reverse transcriptase (Homo sapiens) (UniProt O14746)
# Experiment: Inhibition of telomerase at 10 uM after 30 mins by TRAP assay
# Telomerase reverse transcriptase (Homo sapiens), sequence (O14746 whole entry): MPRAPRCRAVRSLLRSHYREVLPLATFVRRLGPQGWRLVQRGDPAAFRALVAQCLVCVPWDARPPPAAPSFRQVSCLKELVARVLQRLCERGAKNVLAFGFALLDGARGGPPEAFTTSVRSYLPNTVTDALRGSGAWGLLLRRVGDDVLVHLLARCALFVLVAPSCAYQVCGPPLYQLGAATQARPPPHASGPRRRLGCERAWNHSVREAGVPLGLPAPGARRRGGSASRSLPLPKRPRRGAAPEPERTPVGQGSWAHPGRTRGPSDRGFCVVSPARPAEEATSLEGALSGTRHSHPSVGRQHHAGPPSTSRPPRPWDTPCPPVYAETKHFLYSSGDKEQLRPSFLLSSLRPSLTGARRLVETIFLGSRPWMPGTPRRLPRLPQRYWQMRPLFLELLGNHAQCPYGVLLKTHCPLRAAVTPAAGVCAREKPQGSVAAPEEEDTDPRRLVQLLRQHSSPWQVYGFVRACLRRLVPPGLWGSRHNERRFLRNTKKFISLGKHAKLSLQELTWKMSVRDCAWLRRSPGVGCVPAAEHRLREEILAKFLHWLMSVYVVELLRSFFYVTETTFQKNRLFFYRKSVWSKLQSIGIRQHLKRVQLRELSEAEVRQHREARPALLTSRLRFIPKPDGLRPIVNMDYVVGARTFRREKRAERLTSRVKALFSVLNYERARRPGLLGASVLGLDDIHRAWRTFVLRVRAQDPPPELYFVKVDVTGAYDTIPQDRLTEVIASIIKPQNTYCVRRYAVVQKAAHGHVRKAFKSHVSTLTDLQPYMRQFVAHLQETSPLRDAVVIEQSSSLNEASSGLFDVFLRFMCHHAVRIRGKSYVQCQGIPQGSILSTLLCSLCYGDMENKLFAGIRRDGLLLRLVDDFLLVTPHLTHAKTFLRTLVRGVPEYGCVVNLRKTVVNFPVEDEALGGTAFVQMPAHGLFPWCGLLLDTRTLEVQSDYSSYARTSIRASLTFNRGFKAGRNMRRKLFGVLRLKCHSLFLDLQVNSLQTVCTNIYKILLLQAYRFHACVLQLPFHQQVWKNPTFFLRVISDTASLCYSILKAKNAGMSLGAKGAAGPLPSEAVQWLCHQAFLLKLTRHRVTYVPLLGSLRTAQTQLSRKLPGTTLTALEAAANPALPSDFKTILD
row,inhibition [%],SMILES
1,52,CN(C)CCCn1c(=O)c2cc3cc(CCN4CCCCC4)c4cc5c(=O)n(CCCN(C)C)c(=O)c6cc7cc(CCN8CCCCC8)c8cc(c1=O)c2c1c3c4c(c65)c7c81
2,44,CN1CCN(CCc2cc3cc4c(=O)n(CCN5CCCCC5)c(=O)c5cc6c(CCN7CCN(C)CC7)cc7cc8c(=O)n(CCN9CCCCC9)c(=O)c9cc2c2c3c(c45)c6c7c2c89)CC1
3,66,CN(C)CCCn1c(=O)c2cc3cc(CCN4CCN(C)CC4)c4cc5c(=O)n(CCCN(C)C)c(=O)c6cc7cc(CCN8CCN(C)CC8)c8cc(c1=O)c2c1c3c4c(c65)c7c81
4,38,O=c1c2cc3cc(CCN4CCCCC4)c4cc5c(=O)n(CCN6CCCCC6)c(=O)c6cc7cc(CCN8CCCCC8)c8cc(c(=O)n1CCN1CCCCC1)c2c1c3c4c(c65)c7c81

# From ChEMBL document CHEMBL1139050, “Specific interactions with intra- and intermolecular G-quadruplex DNA structures by hydrosoluble coronene derivatives: a new class of telomerase inhibitors” (Bioorg Med Chem, 2007)
